Results from PMC7665123, “In Vitro Anti-Inflammatory Activity in Arthritic Synoviocytes of A. brachypoda Root Extracts and Its Unusual Dimeric Flavonoids” (Molecules, 2020).

Columns and labels:
[1] = test system: IL-6 release from IL-1β activated HFLS; test: IL-6 release by ELISA in IL-1β activated human fibroblast-like synoviocytes; format: cell-based; conditions: for inhibition at 25 µM: compounds at 25 µM = 13 µg/mL, read-out: Inhibition of IL-6 release at highest non-toxic concentration (%); for IC50: isolated compounds; for Fold higher activity (IC50) compared to compound 1 / DCMAB: IC50 comparison
Description: Hip synovial membrane was collected from three male adult patients with clinical osteoarthritis (OA) at the time of hip replacement surgery. […] Once collected, tissue samples were processed, according to previously described protocols. […] After overnight culture, non-adherent cells were removed. At confluence, cells were trypsinized and passaged to 75 cm^2 culture flasks (Corning, NY, USA) in complete medium containing 10% fetal bovine serum. […] All cellular assays were performed from passage 3 to 9. Experiments were conducted twice per donor (n = 6).
All tested compounds were dissolved in a dimethyl sulfoxide (DMSO) stock solution and further diluted in culture medium. Final concentration of DMSO in vehicle of tested concentrations was 0.01%. After 1 h incubation, cells were activated by addition of IL-1β (1 µg/mL) (R&D Systems, Bio-Techne, Abingdon, UK) with subsequent incubation for 23 h. All supernatants were kept at −80 °C, before further testing. Remaining adherent cells were tested for viability using the cell proliferation reagent WST-1 (Roche, Basel, Switzerland), according to the supplier instructions. Pro-inflammatory cytokine IL-6 release in cell supernatant was assessed by ELISA. […] All samples were diluted 90 times. Experiments were conducted twice per donor (n = 6).
In this study, data are presented as mean values ± standard deviation (S.D.). All analyses were performed using GraphPad Prism 8.3 software. IC50 values were determined using a nonlinear fitting of a log (inhibitor concentration) vs response variable slope for each donor’s data set. Consequent values were then averaged. After confirming the data normal distribution and homogeneity of variances (Brown-Forsythe and Welch; Shapiro-Wilk, D’Agostino-Pearson and Anderson-Darling), statistical analysis was performed using a two-way ANOVA with a Bonferroni multiple comparisons test. Significance was determined at alpha level 0.05. Significance values represented are * p < 0.05, ** p < 0.009 and ns for non-significance.

[2] = test system: human fibroblast like synoviocytes (HFLS); test: In vitro cytotoxicity (WST-1 cell viability) in HFLS; format: cell-based; conditions: 24 h, tested 3-100 µM
Description: Hip synovial membrane was collected from three male adult patients with clinical osteoarthritis (OA) at the time of hip replacement surgery. This protocol was conducted under the approval of the local Ethics Committee (CCER, Geneva, Switzerland) (Authorization #2017-02234) and with informed and consenting patients. Once collected, tissue samples were processed, according to previously described protocols. Briefly, samples were finely minced and digested for 3 h (37 °C, 5% CO2 incubation) in a 3 mg/mL collagenase IX-RPMI 1640 solution. After centrifugation (200× g) and supernatant removal, the resuspended pellet was cultured (37 °C, 5% CO2) in medium containing RPMI 1640, M199 (1:1), 1% penicillin/streptomycin (100 IU/mL:100 µg/mL), 2 mM L-glutamine and 20% fetal bovine serum. After overnight culture, non-adherent cells were removed. At confluence, cells were trypsinized and passaged to 75 cm^2 culture flasks (Corning, NY, USA) in complete medium containing 10% fetal bovine serum. A double control was performed to confirm presence of HFLS after isolation: visual morphology evaluation (Figure S3) and flow cytometry with synoviocyte specific surface markers ([…] and VCAM-1). […] All cellular assays were performed from passage 3 to 9. Experiments were conducted twice per donor (n = 6).
Confluent HFLS cells (25,000 cells/well) were treated in a 96-well plate with compounds 1, 2, and 3 (3 µM, 6 µM, 12 µM, 25 µM, 50 µM, and 100 µM), HEAB and DCMAB (increasing concentrations from 3 to 100 µg/mL), or control vehicle for 1 h. All tested compounds were dissolved in a dimethyl sulfoxide (DMSO) stock solution and further diluted in culture medium. Final concentration of DMSO in vehicle of tested concentrations was 0.01%. After 1 h incubation, cells were activated by addition of IL-1β (1 µg/mL) (R&D Systems, Bio-Techne, Abingdon, UK) with subsequent incubation for 23 h. All supernatants were kept at −80 °C, before further testing. […] Pro-inflammatory cytokine IL-6 release in cell supernatant was assessed by ELISA. […]

[3] = Homo sapiens, IL-1β activated HFLS, 24 h
[4] = Homo sapiens, IL-1β activated HFLS, 24 h, n = 6
[5] = Homo sapiens, µM values transformed into µg/mL

Row | SMILES | inhibition at 25 µM [1, 3] [%] | IC50 [1, 4] [µM] | IC50 [1, 5] [µg/mL] | Fold higher activity (IC50) compared to compound 1 / DCMAB [1] [fold] | Concentration at which cytotoxicity / loss of viability occurs [2] [µM] | inhibition at 50 µM ([1]; Homo sapiens, 50 µM, non-significant) [%]
1 | COc1ccc(C=CC2c3c(OC)cc(O)cc3OC3c4c(OC)cc(O)cc4OC(c4ccccc4)C23)cc1 (stereo not drawn) [Compound 2, brachydin B] | 80 ± 9 | 17 ± 3 | 9 ± 3 | 3 | 50 | 
2 | COc1cc(O)cc2c1C(C=Cc1ccc(O)cc1)C1C(c3ccccc3)Oc3cc(O)cc(OC)c3C1O2 (stereo not drawn) [Compound 1, brachydin A] | 10 ± 11 | 62 ± 2 | 33 ± 2 |  | 100 | 24
3 | COc1cc(O)cc2c1C(C=Cc1ccccc1)C1C(c3ccccc3)Oc3cc(O)cc(OC)c3C1O2 (stereo not drawn) [Compound 3, brachydin C] | 94 ± 5 | 19 ± 3 | 10 ± 3 | 3 | 50 | 
